Measurements: paper PMC5896266, “Development of Matrix Metalloproteinase-2 Inhibitors for Cardioprotection” (Frontiers in Pharmacology, 2018)

Key:
[1] = target: MMP-9 (Homo sapiens, UniProt P14780); assay: MMP-9 inhibition (inhibitory profile); type: biochemical; conditions: Table 2
Experimental: (§1) The compounds were measured for MMP-1, 2, 9, 13 to determine their inhibitory profile. Efficiency Index amplifies the two major required effects, selectivity against MMP-1 and the inhibitory activity.

[2] = system: neonatal rat cardiac myocytes; assay: Cell viability of neonatal rat cardiac myocytes subjected to simulated ischemia/reperfusion; type: cell-based; conditions: comparison among the tested lead candidates
Experimental: For our cell viability experiments, 3 day-old cardiomyocytes plated onto 24-well plates were tested under normoxic condition or subjected to simulated ischemia (SI). The normoxic cardiomyocytes were kept under normoxic conditions, i.e., the growth medium was changed to a normoxic solution (in mM: NaCl 125, KCl 5.4, NaH2PO4 1.2, MgCl2 0.5, HEPES 20, glucose 15, taurine 5, CaCl2 1, creatine 2.5, BSA 0.1%, pH 7.4, 310 mOsm/l) (Li et al., [2004]) and the cells were incubated under 95% air and 5% CO2 at 37°C for 2.5 h. […] The cells were then subjected to the following treatments during SI or normoxic protocol: vehicle control or MMP inhibitors at different doses calculated according to IC doses in vitro. […]
Figure 3 Experimental protocol for cell culture studies and for the ex vivo rat heart model of AMI. […] At the end of the reperfusion, cell viability was determined by using calcein flurescence. […] Subsequently, 2 h reperfusion was applied and then infarct size was determined. […]
Cell viability was assessed by a calcein and propidium iodine assay performed in each group after 2 h reoxygenation. […] Then the calcein solution was replaced with fresh PBS and the fluorescence intensity of each well was detected by a fluorescent plate reader (FluoStar Optima, BMG Labtech, Ortenberg, Germany). […]

[3] = system: isolated rat hearts; assay: Myocardial infarct size in isolated rat heart, global ischemia/reperfusion (Langendorff); conditions: 1 μM; 30 min global ischemia, 120 min reperfusion; vs vehicle
Experimental: Our experiment conforms to the National Institutes of Health Guide for the Care and Use of Laboratory Animals (NIH Pub. No. 85-23, Revised 1996) and also to the EU directive guideline for the care and use of laboratory animals published by the European Union (2010/63/EU) and was approved by the local ethics committee of the University of Szeged. Eight to ten week-old male Wistar rats weighing 300–350 g (Toxicoop Ltd., Budapest, Hungary) were anesthetized intraperitoneally with 60 mg/kg pentobarbital sodium (Euthasol, Produlab Pharma, Raamsdonksveer, The Netherlands). After administration of 500 U/kg heparin through the femoral vein, the heart was isolated and perfused according to Langendorff with oxygenated Krebs-Henseleit buffer at 37°C as previously described (Turan et al., [2006]). […] Heart rate and coronary flow were monitored throughout the perfusion protocol. […]
At the end of the 2-h reperfusion, the right ventricle was removed, hearts were frozen, cut into six 1-mm-thick slices, and incubated in 1% triphenyl-tetrazolium chloride (Sigma-Aldrich; St. Louis, MO) at 37°C to delineate infarcted tissue. Slices were then fixed and quantified by planimetry using Infarctsize™ 2.5 software (Pharmahungary, Szeged, Hungary) (Fekete et al., [2013]). Infarct size was expressed as a percentage of the left ventricle.

[4] = target: T1, MMP-1 (Homo sapiens, UniProt P03956); assay: MMP-1 inhibition (inhibitory profile); type: biochemical; conditions: Table 2
T1 sequence (P03956 100-469): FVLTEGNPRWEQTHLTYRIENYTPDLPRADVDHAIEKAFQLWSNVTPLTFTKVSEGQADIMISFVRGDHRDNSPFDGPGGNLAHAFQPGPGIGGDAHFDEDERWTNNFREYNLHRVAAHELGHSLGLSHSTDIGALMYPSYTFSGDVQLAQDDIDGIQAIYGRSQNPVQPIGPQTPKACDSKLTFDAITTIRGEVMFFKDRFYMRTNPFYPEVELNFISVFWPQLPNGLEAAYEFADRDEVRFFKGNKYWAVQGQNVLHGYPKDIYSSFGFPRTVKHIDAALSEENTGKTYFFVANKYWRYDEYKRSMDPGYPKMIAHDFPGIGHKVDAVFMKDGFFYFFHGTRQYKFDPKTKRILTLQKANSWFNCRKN
Experimental: as §1

Sequence of MMP-9 (P14780 94-707, species assumed): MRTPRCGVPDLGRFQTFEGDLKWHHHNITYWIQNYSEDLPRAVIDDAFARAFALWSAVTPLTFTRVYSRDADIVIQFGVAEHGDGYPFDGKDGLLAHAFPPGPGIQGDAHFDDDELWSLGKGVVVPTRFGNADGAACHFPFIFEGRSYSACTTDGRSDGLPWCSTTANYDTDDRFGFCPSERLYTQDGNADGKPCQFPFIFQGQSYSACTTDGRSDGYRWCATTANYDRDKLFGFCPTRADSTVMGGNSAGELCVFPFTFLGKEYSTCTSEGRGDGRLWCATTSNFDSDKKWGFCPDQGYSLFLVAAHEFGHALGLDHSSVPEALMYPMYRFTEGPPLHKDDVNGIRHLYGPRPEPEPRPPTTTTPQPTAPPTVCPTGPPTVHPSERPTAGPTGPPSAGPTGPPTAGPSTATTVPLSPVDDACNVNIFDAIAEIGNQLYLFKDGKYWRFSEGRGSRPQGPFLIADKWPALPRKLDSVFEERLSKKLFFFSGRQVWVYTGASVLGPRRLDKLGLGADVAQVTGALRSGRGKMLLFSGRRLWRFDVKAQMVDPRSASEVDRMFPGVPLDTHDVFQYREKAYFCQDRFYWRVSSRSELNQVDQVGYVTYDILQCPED

- IC50 [1]: 13 µM
- IC50 [4]: 10 µM
Structure (SMILES): O=C(O)c1c[nH]c(CN(Cc2ccc(F)cc2)Cc2ccc(OCc3ccccc3)cc2)n1 [MMPI-1154]
- increase in cell viability during simulated I/R [2]: highest increase in cell viability
- myocardial infarct size [3]: reduced myocardial infarct size significanly
